Results reported in patent US6809112B2, “Method of treating sexual disturbances” (priority 1999, dated 2004).

CN[C@@H]1Cc2cccc3[nH]c(=S)n(c23)C1.O=C(O)CC(O)C(=O)O
melting point: 195 to 196 °C
